According to PubChem BioAssay (NCI):
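Briefly, cells in 96-well plates were exposed to five compound concentrations for 48 h, and endpoints were estimated by linear interpolation. TGI denotes the concentration required for complete inhibition of growth.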

Tests used:
Assay in all cases: NCI anticancer screen, dose series, 48 h
[1] = test system: NCI/ADR-RES ovarian
[2] = test system: RXF 393 renal
[3] = test system: UACC-62 melanoma
[4] = test system: UACC-257 melanoma
[5] = test system: HOP-92 NSCLC
[6] = test system: DU-145 prostate
[7] = test system: HOP-62 NSCLC
[8] = test system: MDA-MB-231 breast
[9] = test system: SK-MEL-5 melanoma
[10] = test system: NCI-H460 lung
[11] = test system: UO-31 renal
[12] = test system: HL-60(TB) leukemia
[13] = test system: PC-3 prostate
[14] = test system: SW-620 colon
[15] = test system: ACHN renal
[16] = test system: CAKI-1 renal
[17] = test system: K-562 leukemia
[18] = test system: SF-268 CNS
[19] = test system: A498 renal
[20] = test system: CCRF-CEM leukemia
[21] = test system: HCT-15 colon
[22] = test system: SNB-75 CNS
[23] = test system: SF-295 CNS
[24] = test system: MOLT-4 leukemia
[25] = test system: BT-549 breast
[26] = test system: A549 NSCLC
[27] = test system: EKVX NSCLC
[28] = test system: T-47D breast
[29] = test system: SN12C renal
[30] = test system: M14 melanoma
[31] = test system: KM12 colon
[32] = test system: SK-MEL-2 melanoma
[33] = test system: MDA-MB-435
[34] = test system: 786-0 renal
[35] = test system: NCI-H522 lung
[36] = test system: SK-OV-3 ovarian
[37] = test system: SNB-19 CNS
[38] = test system: NCI-H226 lung
[39] = test system: U251 CNS
[40] = test system: LOX IMVI melanoma
[41] = test system: MCF7 breast
[42] = test system: HCC-2998 colon
[43] = test system: OVCAR-3 ovarian
[44] = test system: OVCAR-5 ovarian
[45] = test system: TK-10 renal
[46] = test system: IGROV1 ovarian
[47] = test system: HT29 colon
[48] = test system: SF-539 CNS
[49] = test system: OVCAR-8 ovarian
[50] = test system: MDA-N
[51] = test system: NCI-H23 lung
[52] = test system: HCT-116 colon
[53] = test system: HS 578T breast
[54] = test system: SK-MEL-28 melanoma
[55] = test system: MALME-3M melanoma
[56] = test system: OVCAR-4 ovarian
[57] = test system: COLO 205 colon
[58] = test system: RPMI-8226 leukemia

For `O=C(C1OC1c1ccc(F)cc1)C12CC3CC(CC(C3)C1)C2` (stereo not drawn), the TGI [1] was 48.1 µM, the TGI [2] was 32.7 µM and the TGI [3] was 38.7 µM. For the same compound, the TGI [4] was 86.6 µM, the TGI [5] was 52.7 µM and the TGI [6] was greater than 100 µM. It also gave a TGI [7] of 70.8 µM, a TGI [8] of 52.8 µM and a TGI [9] of 30.7 µM. For the same compound, the TGI [10] was 31.1 µM, the TGI [11] was 51.5 µM and the TGI [12] was 31.1 µM. The TGI [13] was greater than 100 µM, the TGI [14] was 44.2 µM and the TGI [15] was 85 µM. It also gave a TGI [16] of 57 µM, a TGI [17] of 37.2 µM and a TGI [18] of 61.2 µM. The TGI [19] was 58 µM, the TGI [20] was 37 µM and the TGI [21] was 56.7 µM. The TGI [22] was greater than 100 µM, the TGI [23] was 79.1 µM and the TGI [24] was 35.3 µM. It also gave a TGI [25] of 67.3 µM, a TGI [26] of 59.7 µM and a TGI [27] of 45.1 µM. The TGI [28] was greater than 100 µM, the TGI [29] was 44.4 µM and the TGI [30] was 31.4 µM. It also gave a TGI [31] of 46.8 µM, a TGI [32] of 30.6 µM and a TGI [33] of 26.2 µM. For the same compound, the TGI [34] was 36.5 µM, the TGI [35] was 38.2 µM and the TGI [36] was 70.3 µM. For the same compound, the TGI [37] was greater than 100 µM, the TGI [38] was 46.6 µM and the TGI [39] was 24.5 µM. It also gave a TGI [40] of 12.3 µM, a TGI [41] of 95.4 µM and a TGI [42] of 36.8 µM. It also gave a TGI [43] of 33.5 µM, a TGI [44] of 54.7 µM and a TGI [45] greater than 100 µM. For the same compound, the TGI [46] was 59.8 µM, the TGI [47] was 45.4 µM and the TGI [48] was 45.7 µM. It also gave a TGI [49] of 29 µM, a TGI [50] of 32.5 µM and a TGI [51] of 43.4 µM. For the same compound, the TGI [52] was 20.1 µM, the TGI [53] was 60.1 µM and the TGI [54] was 59 µM. It also gave a TGI [55] of 78.6 µM, a TGI [56] of 40.2 µM and a TGI [57] of 30.9 µM.

Work on `Cc1cc2c(O)c(c1)CN(Cc1ccccc1)Cc1cc(C)cc(c1O)CN(Cc1ccccc1)Cc1cc(C)cc(c1O)CN(Cc1ccccc1)C2` yielded a TGI [1] greater than 100 µM, a TGI [2] greater than 100 µM and a TGI [3] greater than 100 µM. The TGI [4] was greater than 100 µM, the TGI [6] was greater than 100 µM and the TGI [7] was greater than 100 µM. For the same compound, the TGI [8] was greater than 100 µM, the TGI [9] was greater than 100 µM and the TGI [10] was greater than 100 µM. It also gave a TGI [11] greater than 100 µM, a TGI [12] greater than 100 µM and a TGI [13] greater than 100 µM. It also gave a TGI [14] greater than 100 µM, a TGI [15] greater than 100 µM and a TGI [16] greater than 100 µM. For the same compound, the TGI [17] was greater than 100 µM, the TGI [18] was greater than 100 µM and the TGI [19] was greater than 100 µM. It also gave a TGI [58] greater than 100 µM, a TGI [20] greater than 100 µM and a TGI [21] greater than 100 µM. The TGI [22] was greater than 100 µM, the TGI [23] was greater than 100 µM and the TGI [24] was greater than 100 µM. For the same compound, the TGI [25] was greater than 100 µM, the TGI [26] was greater than 100 µM and the TGI [28] was greater than 100 µM. It also gave a TGI [29] greater than 100 µM, a TGI [30] greater than 100 µM and a TGI [31] greater than 100 µM. The TGI [32] was 95.2 µM, the TGI [33] was greater than 100 µM and the TGI [34] was greater than 100 µM. The TGI [35] was greater than 100 µM, the TGI [36] was greater than 100 µM and the TGI [37] was greater than 100 µM. It also gave a TGI [38] greater than 100 µM, a TGI [39] greater than 100 µM and a TGI [40] greater than 100 µM. The TGI [41] was greater than 100 µM, the TGI [42] was greater than 100 µM and the TGI [43] was greater than 100 µM. The TGI [44] was greater than 100 µM, the TGI [45] was greater than 100 µM and the TGI [46] was greater than 100 µM. It also gave a TGI [47] greater than 100 µM, a TGI [48] greater than 100 µM and a TGI [49] greater than 100 µM. For the same compound, the TGI [50] was greater than 100 µM, the TGI [51] was greater than 100 µM and the TGI [52] was greater than 100 µM. It also gave a TGI [53] greater than 100 µM, a TGI [54] greater than 100 µM and a TGI [55] greater than 100 µM. It also gave a TGI [56] greater than 100 µM and a TGI [57] greater than 100 µM.
